Measurements: ChEMBL document CHEMBL5335856, “Structurally Diverse Alkaloids with Anti-Renal-Fibrosis Activity from the Centipede Scolopendra subspinipes mutilans” (J Nat Prod, 2024)
The source made the active and inactive calls. The calls are words filed in the database; no cut-off is given here.

Columns and labels:
[1] = molecular target: Glutathione hydrolase 7 (Homo sapiens) (UniProt Q9UJ14); test: Binding affinity to Ggt7 (unknown origin) at 200 uM preincubated for 2 hrs followed by pronase addition and measured after 30 mins by coomassie blue staining based SDS-PAGE gel analysis
[2] = molecular target: CD2-associated protein (Homo sapiens) (UniProt Q9Y5K6); test: Binding affinity to Cd2ap (unknown origin) at 200 uM preincubated for 2 hrs followed by pronase addition and measured after 30 mins by coomassie blue staining based SDS-PAGE gel analysis
[3] = molecular target: Prelamin-A/C (Homo sapiens) (UniProt P02545); test: Binding affinity to LMNA (unknown origin) assessed as fold change in protein upregulation at 200 uM preincubated for 2 hrs followed by pronase addition and measured after 30 mins by coomassie blue staining based SDS-PAGE gel analysis
[4] = molecular target: 10 kDa heat shock protein, mitochondrial (Homo sapiens) (UniProt P61604); test: Binding affinity to Hspe1 (unknown origin) assessed as fold change in protein upregulation at 200 uM preincubated for 2 hrs followed by pronase addition and measured after 30 mins by coomassie blue staining based SDS-PAGE gel analysis
Sequence of 10 kDa heat shock protein, mitochondrial (Homo sapiens) (P61604 whole entry): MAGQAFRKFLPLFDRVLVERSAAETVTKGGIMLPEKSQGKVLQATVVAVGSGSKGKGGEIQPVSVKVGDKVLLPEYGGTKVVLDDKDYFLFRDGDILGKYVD

Sequence of Prelamin-A/C (Homo sapiens) (P02545 whole entry): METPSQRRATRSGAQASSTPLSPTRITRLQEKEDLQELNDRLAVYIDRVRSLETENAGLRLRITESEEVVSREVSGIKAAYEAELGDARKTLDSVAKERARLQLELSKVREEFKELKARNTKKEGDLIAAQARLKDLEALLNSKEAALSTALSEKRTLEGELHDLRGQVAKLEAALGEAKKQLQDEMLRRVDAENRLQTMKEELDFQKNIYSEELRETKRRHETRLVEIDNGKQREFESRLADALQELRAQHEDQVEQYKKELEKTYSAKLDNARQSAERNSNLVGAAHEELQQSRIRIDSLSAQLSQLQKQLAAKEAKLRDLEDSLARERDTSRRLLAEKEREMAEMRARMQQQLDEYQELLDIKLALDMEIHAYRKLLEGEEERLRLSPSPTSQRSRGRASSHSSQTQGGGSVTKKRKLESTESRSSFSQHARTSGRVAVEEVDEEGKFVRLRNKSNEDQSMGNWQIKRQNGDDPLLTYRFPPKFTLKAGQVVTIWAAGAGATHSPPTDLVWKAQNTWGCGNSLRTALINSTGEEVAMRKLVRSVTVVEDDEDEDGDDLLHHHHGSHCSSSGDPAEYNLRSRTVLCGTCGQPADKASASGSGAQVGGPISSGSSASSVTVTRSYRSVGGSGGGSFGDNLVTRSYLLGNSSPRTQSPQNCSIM
Sequence of CD2-associated protein (Homo sapiens) (Q9Y5K6 whole entry): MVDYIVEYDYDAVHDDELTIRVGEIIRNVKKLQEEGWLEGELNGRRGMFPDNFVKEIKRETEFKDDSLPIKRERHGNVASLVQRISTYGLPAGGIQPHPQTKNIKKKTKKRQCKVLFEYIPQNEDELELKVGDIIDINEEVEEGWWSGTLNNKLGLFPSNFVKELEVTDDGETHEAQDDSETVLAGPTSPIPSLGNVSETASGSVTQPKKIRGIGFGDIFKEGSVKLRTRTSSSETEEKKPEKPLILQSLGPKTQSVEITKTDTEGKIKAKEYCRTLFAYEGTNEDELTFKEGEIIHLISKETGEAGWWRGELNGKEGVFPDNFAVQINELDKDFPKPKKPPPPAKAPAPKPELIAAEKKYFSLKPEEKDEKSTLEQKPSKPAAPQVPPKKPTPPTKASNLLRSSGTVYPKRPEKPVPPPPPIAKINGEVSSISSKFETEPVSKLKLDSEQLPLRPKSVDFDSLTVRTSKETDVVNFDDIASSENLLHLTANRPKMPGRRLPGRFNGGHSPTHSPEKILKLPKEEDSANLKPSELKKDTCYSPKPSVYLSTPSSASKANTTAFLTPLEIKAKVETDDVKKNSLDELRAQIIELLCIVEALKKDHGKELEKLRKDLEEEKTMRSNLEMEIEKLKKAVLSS
Sequence of Glutathione hydrolase 7 (Homo sapiens) (Q9UJ14 whole entry): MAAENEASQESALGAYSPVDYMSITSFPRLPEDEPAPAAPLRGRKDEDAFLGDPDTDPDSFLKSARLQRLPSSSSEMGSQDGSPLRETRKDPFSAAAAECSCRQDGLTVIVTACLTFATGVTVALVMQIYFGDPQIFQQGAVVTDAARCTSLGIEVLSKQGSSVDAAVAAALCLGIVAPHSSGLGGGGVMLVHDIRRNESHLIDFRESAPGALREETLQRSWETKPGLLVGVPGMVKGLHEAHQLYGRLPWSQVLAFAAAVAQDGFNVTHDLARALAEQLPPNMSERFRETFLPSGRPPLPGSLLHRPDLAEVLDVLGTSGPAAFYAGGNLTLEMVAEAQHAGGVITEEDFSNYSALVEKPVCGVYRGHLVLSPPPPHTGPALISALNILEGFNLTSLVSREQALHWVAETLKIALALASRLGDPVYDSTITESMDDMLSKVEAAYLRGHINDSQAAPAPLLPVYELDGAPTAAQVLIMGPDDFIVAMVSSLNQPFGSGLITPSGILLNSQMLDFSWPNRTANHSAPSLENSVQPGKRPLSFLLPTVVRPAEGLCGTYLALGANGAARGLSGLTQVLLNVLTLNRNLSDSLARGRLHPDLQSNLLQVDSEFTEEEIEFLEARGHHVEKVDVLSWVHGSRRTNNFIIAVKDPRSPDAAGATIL

Structure (SMILES): COc1c(O)nc2c(O)cccc2c1OC
- Activity [1]: Active
- Activity [2]: Active
- fold change (FC) [3]: 1.34
- fold change (FC) [4]: 1.34
